Experiments:
Assay in all cases: KinomeScan kinase panel
Assay type in all cases: binding
[1] = biological target: T1, MERTK (Homo sapiens, UniProt Q12866)
T1 construct: purchased DiscoveRx Corporation (KinomeScan)
In short: (§1)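 Compound is added at 1000 nM to each assay of the KinomeScan 442-kinase panel. Inhibitory effect is then recorded per kinase.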

[2] = biological target: T2, ABL1-phosphorylated (Homo sapiens, UniProt P00519)
T2 construct: purchased DiscoveRx Corporation (KinomeScan)
In short: as §1

[3] = biological target: T3, BMPR1A (Homo sapiens, UniProt P36894)
T3 construct: purchased DiscoveRx Corporation (KinomeScan)
T3 sequence (P36894 24-532): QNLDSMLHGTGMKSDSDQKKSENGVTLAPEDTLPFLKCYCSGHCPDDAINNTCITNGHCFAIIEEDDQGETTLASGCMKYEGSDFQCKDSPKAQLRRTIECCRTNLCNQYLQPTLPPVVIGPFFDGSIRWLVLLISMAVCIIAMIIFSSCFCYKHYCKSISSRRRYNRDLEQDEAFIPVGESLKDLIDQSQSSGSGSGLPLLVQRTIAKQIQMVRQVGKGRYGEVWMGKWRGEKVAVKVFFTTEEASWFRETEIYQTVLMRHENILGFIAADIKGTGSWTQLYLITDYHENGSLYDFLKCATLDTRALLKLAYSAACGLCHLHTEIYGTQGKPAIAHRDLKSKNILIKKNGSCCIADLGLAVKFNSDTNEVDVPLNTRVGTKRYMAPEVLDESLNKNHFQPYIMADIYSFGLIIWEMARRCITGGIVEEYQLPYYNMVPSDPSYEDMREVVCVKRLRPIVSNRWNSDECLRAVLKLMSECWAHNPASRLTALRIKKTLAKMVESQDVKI
In short: as §1

[4] = biological target: T4, SNRK (Homo sapiens, UniProt Q9NRH2)
T4 construct: purchased DiscoveRx Corporation (KinomeScan)
T4 sequence (Q9NRH2 whole entry): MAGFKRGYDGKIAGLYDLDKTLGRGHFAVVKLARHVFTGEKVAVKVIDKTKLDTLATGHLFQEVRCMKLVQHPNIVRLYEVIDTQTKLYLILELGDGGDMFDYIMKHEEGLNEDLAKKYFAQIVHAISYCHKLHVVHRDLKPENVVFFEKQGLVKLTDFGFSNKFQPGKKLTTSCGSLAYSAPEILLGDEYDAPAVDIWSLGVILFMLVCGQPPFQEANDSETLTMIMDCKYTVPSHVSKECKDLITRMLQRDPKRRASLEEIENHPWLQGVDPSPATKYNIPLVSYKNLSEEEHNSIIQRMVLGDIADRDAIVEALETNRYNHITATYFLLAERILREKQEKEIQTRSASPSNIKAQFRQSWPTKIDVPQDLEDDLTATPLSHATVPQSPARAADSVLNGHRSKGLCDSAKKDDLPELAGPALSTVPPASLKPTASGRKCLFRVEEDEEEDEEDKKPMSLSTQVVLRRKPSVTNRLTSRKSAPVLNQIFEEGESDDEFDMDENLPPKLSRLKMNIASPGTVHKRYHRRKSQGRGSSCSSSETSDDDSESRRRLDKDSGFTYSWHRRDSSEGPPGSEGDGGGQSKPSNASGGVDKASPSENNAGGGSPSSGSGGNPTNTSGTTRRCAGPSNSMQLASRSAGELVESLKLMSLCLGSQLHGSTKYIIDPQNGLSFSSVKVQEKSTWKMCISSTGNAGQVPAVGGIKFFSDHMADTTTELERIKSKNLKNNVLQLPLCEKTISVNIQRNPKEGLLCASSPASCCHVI
In short: as §1

[5] = biological target: T5, PLK2 (Homo sapiens, UniProt Q9NYY3)
T5 construct: purchased DiscoveRx Corporation (KinomeScan)
T5 sequence (Q9NYY3 whole entry): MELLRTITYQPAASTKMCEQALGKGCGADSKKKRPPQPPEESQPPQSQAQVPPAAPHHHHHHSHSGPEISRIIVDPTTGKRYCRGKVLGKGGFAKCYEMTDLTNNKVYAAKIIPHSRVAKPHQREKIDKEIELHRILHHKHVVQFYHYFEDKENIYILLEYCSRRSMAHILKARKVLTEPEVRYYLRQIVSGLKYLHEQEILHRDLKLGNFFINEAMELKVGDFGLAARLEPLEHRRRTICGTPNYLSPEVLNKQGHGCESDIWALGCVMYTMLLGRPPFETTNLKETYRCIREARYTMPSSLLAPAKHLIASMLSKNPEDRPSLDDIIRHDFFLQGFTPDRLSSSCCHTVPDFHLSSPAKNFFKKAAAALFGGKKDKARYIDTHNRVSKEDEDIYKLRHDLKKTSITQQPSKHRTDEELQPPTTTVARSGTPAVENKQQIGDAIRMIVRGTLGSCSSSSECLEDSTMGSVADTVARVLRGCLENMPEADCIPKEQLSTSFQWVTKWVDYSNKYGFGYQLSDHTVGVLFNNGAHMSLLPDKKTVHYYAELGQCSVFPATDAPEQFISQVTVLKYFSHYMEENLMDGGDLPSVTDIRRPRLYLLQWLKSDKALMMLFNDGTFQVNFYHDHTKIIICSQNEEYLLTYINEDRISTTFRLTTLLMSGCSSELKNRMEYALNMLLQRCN
In short: as §1

[6] = biological target: T6, ULK2 (Homo sapiens, UniProt Q8IYT8)
T6 construct: purchased DiscoveRx Corporation (KinomeScan service)
In short: as §1

[7] = biological target: T7, KIT(D816V) (Homo sapiens, UniProt P10721, D816V)
T7 construct: purchased DiscoveRx Corporation (KinomeScan)
In short: as §1

[8] = biological target: T8, SRPK1 (Homo sapiens, UniProt Q96SB4)
T8 construct: purchased DiscoveRx Corporation (KinomeScan)
In short: as §1

[9] = biological target: T9, EGFR(L861Q) (Homo sapiens, UniProt P00533, L861Q)
T9 construct: purchased DiscoveRx Corporation (KinomeScan)
In short: as §1

[10] = biological target: T10, RSK3(Kin.Dom.1-N-terminal) (Homo sapiens, UniProt Q15349)
T10 construct: Kin.Dom.1; purchased DiscoveRx Corporation (KinomeScan)
In short: as §1

[11] = biological target: T11, ABL1-nonphosphorylated (Homo sapiens, UniProt P00519)
T11 construct: purchased DiscoveRx Corporation (KinomeScan)
In short: as §1

[12] = biological target: T12, RPS6KA5(kin.Dom.2-C-termimal) (Homo sapiens, UniProt O75582)
T12 construct: kin.Dom.2; purchased DiscoveRx Corporation
In short: as §1

[13] = biological target: T13, PHKG1 (Homo sapiens, UniProt Q16816)
T13 construct: purchased DiscoveRx Corporation (KinomeScan)
In short: as §1

[14] = biological target: T14, ABL1(F317L)-nonphosphorylated (Homo sapiens, UniProt P00519, F317L)
T14 construct: purchased DiscoveRx Corporation (KinomeScan)
In short: as §1

[15] = biological target: T15, PCTK3 (Homo sapiens, UniProt Q07002)
T15 construct: purchased DiscoveRx Corporation (KinomeScan panel)
In short: as §1

[16] = biological target: T16, RIOK1 (Homo sapiens, UniProt Q9BRS2)
T16 construct: purchased DiscoveRx Corporation
In short: as §1

[17] = biological target: T17, MYLK4 (Homo sapiens, UniProt Q86YV6)
T17 construct: purchased DiscoveRx Corporation (KinomeScan)
In short: as §1

[18] = biological target: T18, DAPK1 (Homo sapiens, UniProt P53355)
T18 construct: purchased DiscoveRx Corporation (KinomeScan)
In short: as §1

[19] = biological target: T19, ICK (Homo sapiens, UniProt Q9UPZ9)
T19 construct: purchased DiscoveRx Corporation (KinomeScan)
In short: as §1

[20] = biological target: T20, FLT4 (Homo sapiens, UniProt P35916)
T20 construct: purchased DiscoveRx Corporation (KinomeScan)
In short: as §1

[21] = biological target: T21, ZAP7C (Homo sapiens, UniProt P43403)
T21 construct: purchased DiscoveRx Corporation (KinomeScan service)
In short: as §1

[22] = biological target: T22, GRK1 (Homo sapiens, UniProt Q15835)
T22 construct: purchased DiscoveRx Corporation (KinomeScan)
In short: as §1

[23] = biological target: T23, MST3 (Homo sapiens, UniProt Q9Y6E0)
T23 construct: purchased DiscoveRx Corporation (KinomeScan)
In short: as §1

[24] = biological target: T24, ABL2 (Homo sapiens, UniProt P42684)
T24 construct: purchased DiscoveRx Corporation (KinomeScan)
In short: as §1

[25] = biological target: T25, YSK1 (Homo sapiens, UniProt O00506)
T25 construct: purchased DiscoveRx Corporation (KinomeScan service)
T25 sequence (O00506 whole entry): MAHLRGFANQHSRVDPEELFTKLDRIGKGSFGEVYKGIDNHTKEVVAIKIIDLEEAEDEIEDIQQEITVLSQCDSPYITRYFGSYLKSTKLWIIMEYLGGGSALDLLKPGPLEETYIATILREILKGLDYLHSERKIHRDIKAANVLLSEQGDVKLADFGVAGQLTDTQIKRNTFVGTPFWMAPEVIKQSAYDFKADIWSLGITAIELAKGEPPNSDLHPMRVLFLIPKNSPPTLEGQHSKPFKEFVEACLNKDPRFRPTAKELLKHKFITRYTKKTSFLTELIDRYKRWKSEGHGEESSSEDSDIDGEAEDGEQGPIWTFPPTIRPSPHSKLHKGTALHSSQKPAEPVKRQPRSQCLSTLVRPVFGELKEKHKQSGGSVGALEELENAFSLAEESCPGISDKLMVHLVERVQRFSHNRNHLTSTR
In short: as §1

[26] = biological target: T26, RSK3(Kin.Dom.2-C-terminal) (Homo sapiens, UniProt Q15349)
T26 construct: Kin.Dom.2; purchased DiscoveRx Corporation (KinomeScan)
In short: as §1

[27] = biological target: T27, PIK3CA(E542K) (Homo sapiens, UniProt P42336, E542K)
T27 construct: purchased DiscoveRx Corporation (KinomeScan)
In short: as §1

[28] = biological target: T28, PRKD3 (Homo sapiens, UniProt O94806)
T28 construct: purchased DiscoveRx Corporation (KinomeScan)
In short: as §1

[29] = biological target: T29, ABL1(Q252H)-phosphorylated (Homo sapiens, UniProt P00519, Q252H)
T29 construct: purchased DiscoveRx Corporation (KinomeScan)
In short: as §1

[30] = biological target: T30, PRKCH (Homo sapiens, UniProt P24723)
T30 construct: purchased DiscoveRx Corporation (KinomeScan)
In short: as §1

[31] = biological target: T31, MEK6 (Homo sapiens, UniProt P52564)
T31 construct: purchased DiscoveRx Corporation (KinomeScan)
T31 sequence (P52564 whole entry): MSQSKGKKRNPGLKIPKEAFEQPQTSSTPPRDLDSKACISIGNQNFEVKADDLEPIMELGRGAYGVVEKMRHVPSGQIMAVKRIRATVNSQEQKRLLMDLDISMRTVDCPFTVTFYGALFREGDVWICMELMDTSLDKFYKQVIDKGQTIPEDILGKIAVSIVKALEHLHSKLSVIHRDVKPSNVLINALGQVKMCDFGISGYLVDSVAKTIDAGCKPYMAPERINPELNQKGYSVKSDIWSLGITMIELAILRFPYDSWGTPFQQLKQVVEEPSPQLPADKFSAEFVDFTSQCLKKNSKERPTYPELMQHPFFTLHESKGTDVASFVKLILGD
In short: as §1

[32] = biological target: T32, DLK (Homo sapiens, UniProt Q12852)
T32 construct: purchased DiscoveRx Corporation (KinomeScan)
In short: as §1

[33] = biological target: T33, EPHA6 (Homo sapiens, UniProt Q9UF33)
T33 construct: purchased DiscoveRx Corporation (KinomeScan)
T33 sequence (Q9UF33 23-1036): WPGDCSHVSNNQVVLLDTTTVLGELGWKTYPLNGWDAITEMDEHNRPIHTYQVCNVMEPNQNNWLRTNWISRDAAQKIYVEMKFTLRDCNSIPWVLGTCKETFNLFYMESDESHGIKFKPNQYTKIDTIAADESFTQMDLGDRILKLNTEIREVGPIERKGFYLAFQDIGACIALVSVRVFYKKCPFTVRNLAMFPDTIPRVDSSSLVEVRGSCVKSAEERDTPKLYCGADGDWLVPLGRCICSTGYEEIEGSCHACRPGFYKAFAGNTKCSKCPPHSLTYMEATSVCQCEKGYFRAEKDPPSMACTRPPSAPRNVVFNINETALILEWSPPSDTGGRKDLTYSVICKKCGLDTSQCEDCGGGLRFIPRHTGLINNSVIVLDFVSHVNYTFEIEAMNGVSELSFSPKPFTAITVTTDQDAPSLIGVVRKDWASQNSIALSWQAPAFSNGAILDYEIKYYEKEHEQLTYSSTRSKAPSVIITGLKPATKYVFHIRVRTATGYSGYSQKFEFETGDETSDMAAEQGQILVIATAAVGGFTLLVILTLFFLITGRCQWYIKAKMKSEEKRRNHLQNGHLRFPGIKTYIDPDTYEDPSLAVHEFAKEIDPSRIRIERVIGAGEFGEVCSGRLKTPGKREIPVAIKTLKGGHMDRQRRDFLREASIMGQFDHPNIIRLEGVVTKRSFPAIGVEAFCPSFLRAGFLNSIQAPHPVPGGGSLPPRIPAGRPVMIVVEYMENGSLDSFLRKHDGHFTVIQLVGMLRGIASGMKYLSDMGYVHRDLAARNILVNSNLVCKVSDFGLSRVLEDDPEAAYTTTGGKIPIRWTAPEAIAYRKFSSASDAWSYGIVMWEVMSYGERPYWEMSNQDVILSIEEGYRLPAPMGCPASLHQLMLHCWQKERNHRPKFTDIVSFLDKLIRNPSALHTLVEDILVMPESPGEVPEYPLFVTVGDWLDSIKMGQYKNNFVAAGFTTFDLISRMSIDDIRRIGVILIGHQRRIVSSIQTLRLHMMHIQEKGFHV
In short: as §1

[34] = biological target: T34, HIPK1 (Homo sapiens, UniProt Q86Z02)
T34 construct: purchased DiscoveRx Corporation (KinomeScan)
T34 sequence (Q86Z02 whole entry): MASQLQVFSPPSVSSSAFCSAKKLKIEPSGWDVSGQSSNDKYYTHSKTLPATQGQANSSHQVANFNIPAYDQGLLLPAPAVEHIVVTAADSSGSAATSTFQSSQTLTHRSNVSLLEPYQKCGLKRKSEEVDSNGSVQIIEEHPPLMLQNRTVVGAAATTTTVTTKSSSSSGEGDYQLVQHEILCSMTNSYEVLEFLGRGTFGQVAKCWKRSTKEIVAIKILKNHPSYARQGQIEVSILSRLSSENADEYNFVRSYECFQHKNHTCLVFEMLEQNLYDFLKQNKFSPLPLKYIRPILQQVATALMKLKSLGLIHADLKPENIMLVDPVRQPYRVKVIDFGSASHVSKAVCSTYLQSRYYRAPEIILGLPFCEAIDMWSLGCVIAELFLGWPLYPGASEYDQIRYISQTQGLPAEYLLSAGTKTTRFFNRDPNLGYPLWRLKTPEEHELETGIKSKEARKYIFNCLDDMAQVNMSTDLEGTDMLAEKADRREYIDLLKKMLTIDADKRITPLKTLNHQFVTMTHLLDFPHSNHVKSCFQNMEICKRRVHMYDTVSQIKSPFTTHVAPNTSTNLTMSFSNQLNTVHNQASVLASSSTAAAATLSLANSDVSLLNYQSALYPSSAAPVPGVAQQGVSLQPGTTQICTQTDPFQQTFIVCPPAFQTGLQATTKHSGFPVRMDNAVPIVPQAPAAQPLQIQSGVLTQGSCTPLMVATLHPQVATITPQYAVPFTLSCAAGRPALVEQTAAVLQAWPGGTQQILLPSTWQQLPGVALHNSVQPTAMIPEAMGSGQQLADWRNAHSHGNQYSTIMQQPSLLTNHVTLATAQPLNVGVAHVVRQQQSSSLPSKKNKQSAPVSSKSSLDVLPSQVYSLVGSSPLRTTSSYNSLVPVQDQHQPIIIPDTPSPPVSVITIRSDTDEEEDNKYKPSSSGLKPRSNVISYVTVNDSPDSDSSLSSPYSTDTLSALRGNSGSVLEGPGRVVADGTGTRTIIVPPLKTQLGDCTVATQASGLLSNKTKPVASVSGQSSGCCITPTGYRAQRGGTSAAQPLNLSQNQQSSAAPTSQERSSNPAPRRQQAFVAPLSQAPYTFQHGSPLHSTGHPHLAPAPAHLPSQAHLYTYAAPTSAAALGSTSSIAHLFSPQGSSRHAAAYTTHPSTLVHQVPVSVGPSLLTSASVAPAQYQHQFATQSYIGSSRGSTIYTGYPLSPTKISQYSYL
In short: as §1

SMILES: CCOP(=O)(CN1CCC(COc2cc3nccc(Oc4ccc(NC(=O)C5(C(=O)Nc6ccc(F)cc6)CC5)cc4F)c3cc2OC)CC1)OCC [Example 10, N1-[4-[[7-[[1-(diethoxyphosphorylmethyl)-4-piperidinyl]methoxyl]-6-methoxyl-4-quinolyl]oxyl]-3-fluorophenyl]-N1′-(4-fluorophenyl)cyclopropane-1,1-dicarboxamide]
- % Ctrl@1000 nM [1]: 2.1 % Ctrl
- % Ctrl@1000 nM [2]: 33 % Ctrl
- % Ctrl@1000 nM [3]: 100 % Ctrl
- % Ctrl@1000 nM [4]: 100 % Ctrl
- % Ctrl@1000 nM [5]: 83 % Ctrl
- % Ctrl@1000 nM [6]: 100 % Ctrl
- % Ctrl@1000 nM [7]: 18 % Ctrl
- % Ctrl@1000 nM [8]: 70 % Ctrl
- % Ctrl@1000 nM [9]: 84 % Ctrl
- % Ctrl@1000 nM [10]: 100 % Ctrl
- % Ctrl@1000 nM [11]: 1.8 % Ctrl
- % Ctrl@1000 nM [12]: 83 % Ctrl
- % Ctrl@1000 nM [13]: 100 % Ctrl
- % Ctrl@1000 nM [14]: 10 % Ctrl
- % Ctrl@1000 nM [15]: 100 % Ctrl
- % Ctrl@1000 nM [16]: 100 % Ctrl
- % Ctrl@1000 nM [17]: 100 % Ctrl
- % Ctrl@1000 nM [18]: 100 % Ctrl
- % Ctrl@1000 nM [19]: 95 % Ctrl
- % Ctrl@1000 nM [20]: 0.2 % Ctrl
- % Ctrl@1000 nM [21]: 81 % Ctrl
- % Ctrl@1000 nM [22]: 100 % Ctrl
- % Ctrl@1000 nM [23]: 100 % Ctrl
- % Ctrl@1000 nM [24]: 28 % Ctrl
- % Ctrl@1000 nM [25]: 57 % Ctrl
- % Ctrl@1000 nM [26]: 100 % Ctrl
- % Ctrl@1000 nM [27]: 100 % Ctrl
- % Ctrl@1000 nM [28]: 88 % Ctrl
- % Ctrl@1000 nM [29]: 84 % Ctrl
- % Ctrl@1000 nM [30]: 100 % Ctrl
- % Ctrl@1000 nM [31]: 87 % Ctrl
- % Ctrl@1000 nM [32]: 52 % Ctrl
- % Ctrl@1000 nM [33]: 4.8 % Ctrl
- % Ctrl@1000 nM [34]: 92 % Ctrl
